Reference: US11746109B2, “Crystalline forms of 2-[(2S)-1-azabicyclo[2.2.2]oct-2-yl]-6-(3-methyl-1H-pyrazol-4-yl)thieno[3,2-d]pyrimidin-4(3H)-one hemihydrate” (TAKEDA PHARMACEUTICAL COMPANY LIMITED, priority 2016, dated 2023)

How the values were obtained:
Format in all cases: physicochemical
[1] = Estimated solubility at 55° C. in recrystallization solvents; conditions: organic solvent or mixture, thermodynamic from solid
Protocol: Recrystallization of Compound 1 Crystalline Form A was investigated in various solvent conditions. […] One of water, heptane or IPE was added as an anti-solvent to maintain the saturation state. Recrystallization in heptane yielded a sufficient amount of solids for analysis after gradual cooling. […] Crystals obtained from THF, trifluoroethanol, THF/heptane, chloroform/heptane, chloroform/IPE and trifluoroethanol/IPE were characterized as solvates by XRPD and TGA/DSC analysis. Crystals obtained from all other solvents were confirmed to be Compound 1 Crystalline Form A based on XRPD analysis.

[2] = Solubility in 200 mM phosphate buffer (pH 6.8); conditions: for solubility at 20 h: phosphate buffer, pH 6.8, aqueous buffer, thermodynamic from solid; for solubility: 20 hrs, hemihydrate
Protocol: About 2 mg of Compound 1 Crystalline Form A made in example 2 or Compound 1 Crystalline Form I made in example 3-2 and 2 mL of 200 mM phosphate buffer (pH 6.8) were added into a glass test tube. The test tube was shaken vigorously and incubated at 10° C., 20° C., 30° C. or 40° C. for 20 hrs. After the incubation, the suspension was centrifuged and the supernatant was filtered through a 0.22 μm pore membrane filter. The filtrate solutions were diluted 2-fold with 50 mM sodium perchlorate buffer (pH 2.5)/acetonitrile (1/1, v/v). Concentration was determined by HPLC.

[3] = Solubility in water/DMSO at 60° C.; conditions: for solubility / solubility at 24 h: Water/DMSO at 60° C.; for solubility: hemihydrate; for solubility at 24 h: water/DMSO, 60 °C, organic solvent or mixture, thermodynamic from solid
Protocol: A solution of DMSO/water with known water content was added to a glass vial and heated to 60° C. Crystals of Compound 1 Crystalline Form I or Compound 1 Crystalline Form A were added to the vial until a suspension was obtained. The suspension was stirred via magnetic stirring and incubated for 24 hrs at 60° C. After incubation, the suspension was filtered at 60° C. 10 μL of the filtrate was sampled and diluted with 990 μL of acetonitrile/water (1/1, v/v). Sample concentration of Compound 1 was determined by HPLC. […] The experimental solubility results are summarized below in Tables 5 and 6.

[4] = Hygroscopicity of crystalline forms
[5] = Chemical and optical stability of crystalline forms on storage
[6] = 60° C./75% relative humidity (open) for at least eight weeks
[7] = 80° C. (closed) for at least eight weeks

Work on Cc1[nH]ncc1-c1cc2nc([C@@H]3CC4CCN3CC4)[nH]c(=O)c2s1 [Compound 1 Crystalline Form A, 2-[(2S)-1-azabicyclo[2.2.2]oct-2-yl]-6-(3-methyl-1H-pyrazol-4-yl)thieno[3,2-d]pyrimidin-4(3H)-one hemihydrate] yielded a solubility ([1]; solvent Acetone) of under 2000 µg/mL, a solubility ([1]; solvent Acetonitrile) of under 2000 µg/mL and a solubility ([1]; solvent Chloroform) of 2800 µg/mL. It also gave a solubility ([1]; solvent Ethanol) of 10500 µg/mL, a solubility ([1]; solvent Ethyl acetate) of under 2000 µg/mL and a solubility ([1]; solvent Formamide) of 10000 µg/mL. It also gave a solubility ([1]; solvent IPA) of 6700 µg/mL, a solubility ([1]; solvent MEK) of 2900 µg/mL and a solubility ([1]; solvent Methanol) of 33300 µg/mL. It also gave a solubility ([1]; solvent THF) of 9100 µg/mL, a solubility ([1]; solvent Toluene) of under 2000 µg/mL and a solubility ([1]; solvent Trifluoroethanol) of over 100000 µg/mL. The solubility at 20 h ([2]; 10 °C) was 102 µg/mL, the solubility at 20 h ([2]; 20 °C) was 104 µg/mL and the solubility at 20 h ([2]; 30 °C) was 115 µg/mL. For the same molecule, the solubility at 20 h ([2]; 40 °C) was 136 µg/mL, the solubility ([3]; 0 % water by volume) was 153.8 mg/mL and the solubility ([3]; 6 % water by volume) was 73.4 mg/mL. The solubility at 24 h ([3]; 8.5 % water by volume) was 51 mg/mL, the solubility at 24 h ([3]; 8.7 % water by volume) was 44 mg/mL and the solubility at 24 h ([3]; 9.8 % water by volume) was 38.5 mg/mL. It also gave a solubility at 24 h ([3]; 10.7 % water by volume) of 32.1 mg/mL, a solubility at 24 h ([3]; 11.3 % water by volume) of 28.6 mg/mL and a solubility at 24 h ([3]; 11.8 % water by volume) of 25.7 mg/mL. For the same molecule, the Hygroscopicity ([4]; at 25° C.) was “not hygroscopic”, the Hygroscopicity ([4]; at 40° C.) was “not hygroscopic” and the “Chemical and optical stability” value [5, 6] was “chemically and optically stable”. The “Chemical and optical stability” value [5, 7] was “chemically and optically stable”.

Work on Cc1[nH]ncc1-c1cc2nc([C@@H]3CC4CCN3CC4)[nH]c(=O)c2s1 [Compound 1 Crystalline Form I, 2-[(2S)-1-azabicyclo[2.2.2]oct-2-yl]-6-(3-methyl-1H-pyrazol-4-yl)thieno[3,2-d]pyrimidin-4(3H)-one hemihydrate] yielded a solubility ([2]; 10 °C) of 63 µg/mL, a solubility ([2]; 20 °C) of 71 µg/mL and a solubility ([2]; 30 °C) of 80 µg/mL. The solubility ([2]; 40 °C) was 99 µg/mL, the “Solubility in water/DMSO relative to Compound 1 Crystalline Form A” value ([3]; at 60° C. (FIG. 7)) was “lower” and the solubility at 24 h ([3]; 0 % water by volume) was 134 mg/mL. It also gave a solubility at 24 h ([3]; 3 % water by volume) of 108 mg/mL, a solubility at 24 h ([3]; 4 % water by volume) of 92.2 mg/mL and a solubility at 24 h ([3]; 4.5 % water by volume) of 74.8 mg/mL. For the same molecule, the solubility at 24 h ([3]; 6 % water by volume) was 65.8 mg/mL, the solubility at 24 h ([3]; 8 % water by volume) was 34.8 mg/mL and the Hygroscopicity ([4]; at 25° C.) was “not hygroscopic”. The Hygroscopicity ([4]; at 40° C.) was “not hygroscopic”, the “Chemical and optical stability” value [5, 6] was “chemically and optically stable” and the “Chemical and optical stability” value [5, 7] was “chemically and optically stable”.
